Source: the supplement of paper PMC10307832

How the values were obtained:
Assay in all cases: relative viability (nuclei count vs DMSO), 5 days (fraction); higher = more cells survive
[1] = compound: C1COCCN1C2=NC(=NC3=C2OC4=C3C=CC=N4)C5=CC(=CC=C5)NC(=O)C6=CN=C(C=C6)N + CC1(C)CCC(c2ccc(Cl)cc2)=C(CN2CCN(c3ccc(C(=O)NS(=O)(=O)c4ccc(N[C@H](CCN5CCOCC5)CSc5ccccc5)c(S(=O)(=O)C(F)(F)F)c4)cc3)CC2)C1 [Navitoclax] (partner 0.5 µM)
In short: (§1)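 Relative viability was taken as the ratio of nuclei in treated wells to nuclei in vehicle wells. Lung cancer cell lines in 1536-well plates received compounds by pin tool one day after seeding, either one drug alone or a fixed anchor-drug dose plus five library-drug doses (not always all listed) in √10 steps. Nuclei were counted on 4× images after 5 days of treatment, and values are medians of duplicate plates.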

SGI-1776 + OSI-027 = compound: CN1CCC(CNc2ccc3ncc(-c4cccc(OC(F)(F)F)c4)n3n2)CC1 [SGI-1776] + COc1cccc2cc(-c3nc([C@H]4CC[C@H](C(=O)O)CC4)n4ncnc(N)c34)[nH]c12 [OSI-027] (partner 0.5 µM)
In short: as §1

Entinostat + Trametinib = compound: Nc1ccccc1NC(=O)c1ccc(CNC(=O)OCc2cccnc2)cc1 [Entinostat] + CC(=O)Nc1cccc(-n2c(=O)n(C3CC3)c(=O)c3c(Nc4ccc(I)cc4F)n(C)c(=O)c(C)c32)c1 [Trametinib] (partner 0.02 µM)
In short: as §1

Entinostat + Linsitinib = compound: Nc1ccccc1NC(=O)c1ccc(CNC(=O)OCc2cccnc2)cc1 [Entinostat] + C[C@]1(O)C[C@@H](c2nc(-c3ccc4ccc(-c5ccccc5)nc4c3)c3c(N)nccn32)C1 [Linsitinib] (partner 1 µM)
In short: as §1

NCI-H838
relative viability ([1]; first compound 0.02 µM): 0.92 | relative viability ([1]; first compound 0.06325 µM): 1.14 | relative viability ([1]; first compound 0.2 µM): 1.09 | relative viability ([1]; first compound 0.6325 µM): 0.946 | relative viability ([1]; first compound 2 µM): 0.437 | relative viability (SGI-1776 + OSI-027; first compound 0.08 µM): 0.414 | relative viability (SGI-1776 + OSI-027; first compound 0.8 µM): 0.401 | relative viability (SGI-1776 + OSI-027; first compound 2.53 µM): 0.308 | relative viability (SGI-1776 + OSI-027; first compound 8 µM): 0.246 | relative viability (Entinostat + Trametinib; first compound 0.02 µM): 0.531 | relative viability (Entinostat + Trametinib; first compound 0.06325 µM): 0.548 | relative viability (Entinostat + Trametinib; first compound 0.2 µM): 0.626 | relative viability (Entinostat + Trametinib; first compound 0.6325 µM): 0.395 | relative viability (Entinostat + Trametinib; first compound 2 µM): 0.167 | relative viability (Entinostat + Linsitinib; first compound 0.02 µM): 1.11 | relative viability (Entinostat + Linsitinib; first compound 0.06325 µM): 1.1 | relative viability (Entinostat + Linsitinib; first compound 0.2 µM): 1.11 | relative viability (Entinostat + Linsitinib; first compound 0.6325 µM): 0.594 | relative viability (Entinostat + Linsitinib; first compound 2 µM): 0.279

HARA
relative viability ([1]; first compound 0.02 µM): 1.2 | relative viability ([1]; first compound 0.06325 µM): 1.17 | relative viability ([1]; first compound 0.2 µM): 1.21 | relative viability ([1]; first compound 0.6325 µM): 1.19 | relative viability ([1]; first compound 2 µM): 0.897 | relative viability (SGI-1776 + OSI-027; first compound 0.08 µM): 0.681 | relative viability (SGI-1776 + OSI-027; first compound 0.8 µM): 0.638 | relative viability (SGI-1776 + OSI-027; first compound 2.53 µM): 0.64 | relative viability (SGI-1776 + OSI-027; first compound 8 µM): 0.412 | relative viability (Entinostat + Trametinib; first compound 0.02 µM): 0.903 | relative viability (Entinostat + Trametinib; first compound 0.06325 µM): 0.983 | relative viability (Entinostat + Trametinib; first compound 0.2 µM): 0.696 | relative viability (Entinostat + Trametinib; first compound 0.6325 µM): 0.647 | relative viability (Entinostat + Trametinib; first compound 2 µM): 0.48 | relative viability (Entinostat + Linsitinib; first compound 0.02 µM): 0.917 | relative viability (Entinostat + Linsitinib; first compound 0.06325 µM): 0.938 | relative viability (Entinostat + Linsitinib; first compound 0.2 µM): 0.938 | relative viability (Entinostat + Linsitinib; first compound 0.6325 µM): 0.793 | relative viability (Entinostat + Linsitinib; first compound 2 µM): 0.577

NCI-H23
relative viability ([1]; first compound 0.02 µM): 0.788 | relative viability ([1]; first compound 0.06325 µM): 0.968 | relative viability ([1]; first compound 0.2 µM): 0.733 | relative viability ([1]; first compound 0.6325 µM): 0.72 | relative viability ([1]; first compound 2 µM): 0.533 | relative viability (SGI-1776 + OSI-027; first compound 0.08 µM): 0.676 | relative viability (SGI-1776 + OSI-027; first compound 0.8 µM): 0.547 | relative viability (SGI-1776 + OSI-027; first compound 2.53 µM): 0.724 | relative viability (SGI-1776 + OSI-027; first compound 8 µM): 0.437 | relative viability (Entinostat + Trametinib; first compound 0.02 µM): 0.411 | relative viability (Entinostat + Trametinib; first compound 0.06325 µM): 0.475 | relative viability (Entinostat + Trametinib; first compound 0.2 µM): 0.483 | relative viability (Entinostat + Trametinib; first compound 0.6325 µM): 0.394 | relative viability (Entinostat + Trametinib; first compound 2 µM): 0.215 | relative viability (Entinostat + Linsitinib; first compound 0.02 µM): 0.723 | relative viability (Entinostat + Linsitinib; first compound 0.06325 µM): 0.567 | relative viability (Entinostat + Linsitinib; first compound 0.2 µM): 0.782 | relative viability (Entinostat + Linsitinib; first compound 0.6325 µM): 0.531 | relative viability (Entinostat + Linsitinib; first compound 2 µM): 0.399

LOU-NH91
relative viability ([1]; first compound 0.02 µM): 0.658 | relative viability ([1]; first compound 0.06325 µM): 0.728 | relative viability ([1]; first compound 0.2 µM): 0.765 | relative viability ([1]; first compound 0.6325 µM): 0.74 | relative viability ([1]; first compound 2 µM): 0.586 | relative viability (SGI-1776 + OSI-027; first compound 0.08 µM): 0.777 | relative viability (SGI-1776 + OSI-027; first compound 0.8 µM): 0.726 | relative viability (SGI-1776 + OSI-027; first compound 2.53 µM): 0.826 | relative viability (SGI-1776 + OSI-027; first compound 8 µM): 0.56 | relative viability (Entinostat + Trametinib; first compound 0.02 µM): 0.777 | relative viability (Entinostat + Trametinib; first compound 0.06325 µM): 0.771 | relative viability (Entinostat + Trametinib; first compound 0.2 µM): 0.804 | relative viability (Entinostat + Trametinib; first compound 0.6325 µM): 0.739 | relative viability (Entinostat + Trametinib; first compound 2 µM): 0.674 | relative viability (Entinostat + Linsitinib; first compound 0.02 µM): 0.911 | relative viability (Entinostat + Linsitinib; first compound 0.06325 µM): 1.02 | relative viability (Entinostat + Linsitinib; first compound 0.2 µM): 0.95 | relative viability (Entinostat + Linsitinib; first compound 0.6325 µM): 0.816 | relative viability (Entinostat + Linsitinib; first compound 2 µM): 0.714

LCLC-103H
relative viability (SGI-1776 + OSI-027; first compound 0.08 µM): 0.481 | relative viability (SGI-1776 + OSI-027; first compound 0.8 µM): 0.446 | relative viability (SGI-1776 + OSI-027; first compound 2.53 µM): 0.457 | relative viability (SGI-1776 + OSI-027; first compound 8 µM): 0.425 | relative viability (Entinostat + Trametinib; first compound 0.02 µM): 0.718 | relative viability (Entinostat + Trametinib; first compound 0.06325 µM): 0.605 | relative viability (Entinostat + Trametinib; first compound 0.2 µM): 0.713 | relative viability (Entinostat + Trametinib; first compound 0.6325 µM): 0.588 | relative viability (Entinostat + Trametinib; first compound 2 µM): 0.561 | relative viability (Entinostat + Linsitinib; first compound 0.02 µM): 1.07 | relative viability (Entinostat + Linsitinib; first compound 0.06325 µM): 1.12 | relative viability (Entinostat + Linsitinib; first compound 0.2 µM): 0.937 | relative viability (Entinostat + Linsitinib; first compound 0.6325 µM): 0.931 | relative viability (Entinostat + Linsitinib; first compound 2 µM): 0.715

SW 1573
relative viability ([1]; first compound 0.02 µM): 1.02 | relative viability ([1]; first compound 0.06325 µM): 1.01 | relative viability ([1]; first compound 0.2 µM): 0.856 | relative viability ([1]; first compound 0.6325 µM): 0.912 | relative viability ([1]; first compound 2 µM): 0.567 | relative viability (SGI-1776 + OSI-027; first compound 0.08 µM): 0.673 | relative viability (SGI-1776 + OSI-027; first compound 0.8 µM): 0.715 | relative viability (SGI-1776 + OSI-027; first compound 2.53 µM): 0.631 | relative viability (SGI-1776 + OSI-027; first compound 8 µM): 0.391 | relative viability (Entinostat + Trametinib; first compound 0.02 µM): 0.652 | relative viability (Entinostat + Trametinib; first compound 0.06325 µM): 0.722 | relative viability (Entinostat + Trametinib; first compound 0.2 µM): 0.733 | relative viability (Entinostat + Trametinib; first compound 0.6325 µM): 0.554 | relative viability (Entinostat + Trametinib; first compound 2 µM): 0.431 | relative viability (Entinostat + Linsitinib; first compound 0.02 µM): 0.721 | relative viability (Entinostat + Linsitinib; first compound 0.06325 µM): 0.93 | relative viability (Entinostat + Linsitinib; first compound 0.2 µM): 0.811 | relative viability (Entinostat + Linsitinib; first compound 0.6325 µM): 0.884 | relative viability (Entinostat + Linsitinib; first compound 2 µM): 0.609

EKVX
relative viability ([1]; first compound 0.02 µM): 1.17 | relative viability ([1]; first compound 0.06325 µM): 0.939 | relative viability ([1]; first compound 0.2 µM): 0.944 | relative viability ([1]; first compound 0.6325 µM): 0.805 | relative viability ([1]; first compound 2 µM): 0.684 | relative viability (SGI-1776 + OSI-027; first compound 0.08 µM): 0.707 | relative viability (SGI-1776 + OSI-027; first compound 0.8 µM): 0.736 | relative viability (SGI-1776 + OSI-027; first compound 2.53 µM): 0.755 | relative viability (SGI-1776 + OSI-027; first compound 8 µM): 0.612 | relative viability (Entinostat + Trametinib; first compound 0.02 µM): 0.364 | relative viability (Entinostat + Trametinib; first compound 0.06325 µM): 0.344 | relative viability (Entinostat + Trametinib; first compound 0.2 µM): 0.261 | relative viability (Entinostat + Trametinib; first compound 0.6325 µM): 0.252 | relative viability (Entinostat + Trametinib; first compound 2 µM): 0.227 | relative viability (Entinostat + Linsitinib; first compound 0.02 µM): 0.896 | relative viability (Entinostat + Linsitinib; first compound 0.06325 µM): 1.01 | relative viability (Entinostat + Linsitinib; first compound 0.2 µM): 0.79 | relative viability (Entinostat + Linsitinib; first compound 0.6325 µM): 0.663 | relative viability (Entinostat + Linsitinib; first compound 2 µM): 0.438
